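Briefly, cells in 96-well plates were exposed to five compound concentrations for 48 h, and endpoints were estimated by linear interpolation. Here, GI50 denotes the concentration required for 50% inhibition of growth. At the TGI there is no net growth.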
Legend:
Assay in all cases: NCI-60 cell line screen, 48 h
[1] = tested on: SK-MEL-28 melanoma
[2] = tested on: HCC-2998 colon
[3] = tested on: TK-10 renal
[4] = tested on: SW-620 colon
[5] = tested on: SK-OV-3 ovarian
[6] = tested on: SR leukemia
[7] = tested on: MALME-3M melanoma
[8] = tested on: A549 NSCLC
[9] = tested on: UACC-62 melanoma
[10] = tested on: SF-295 CNS
[11] = tested on: NCI/ADR-RES ovarian
[12] = tested on: NCI-H23 lung
[13] = tested on: PC-3 prostate
[14] = tested on: HCT-15 colon
[15] = tested on: MOLT-4 leukemia
[16] = tested on: M14 melanoma
[17] = tested on: T-47D breast
[18] = tested on: COLO 205 colon
[19] = tested on: DU-145 prostate
[20] = tested on: SNB-75 CNS
[21] = tested on: RXF 393 renal
[22] = tested on: OVCAR-8 ovarian
[23] = tested on: SNB-19 CNS
[24] = tested on: OVCAR-3 ovarian
[25] = tested on: SF-539 CNS
[26] = tested on: BT-549 breast
[27] = tested on: 786-0 renal
[28] = tested on: NCI-H226 lung
[29] = tested on: MDA-MB-231 breast
[30] = tested on: KM12 colon
[31] = tested on: UACC-257 melanoma
[32] = tested on: RPMI-8226 leukemia
[33] = tested on: MCF7 breast
[34] = tested on: A498 renal
[35] = tested on: CCRF-CEM leukemia
[36] = tested on: SN12C renal
[37] = tested on: NCI-H460 lung
[38] = tested on: HL-60(TB) leukemia
[39] = tested on: K-562 leukemia
[40] = tested on: NCI-H522 lung
[41] = tested on: IGROV1 ovarian
[42] = tested on: SK-MEL-5 melanoma
[43] = tested on: HOP-62 NSCLC
[44] = tested on: HT29 colon
[45] = tested on: UO-31 renal
[46] = tested on: ACHN renal
[47] = tested on: HCT-116 colon
[48] = tested on: MDA-MB-435
[49] = tested on: SF-268 CNS
[50] = tested on: HS 578T breast
[51] = tested on: OVCAR-5 ovarian
[52] = tested on: OVCAR-4 ovarian
[53] = tested on: CAKI-1 renal

SMILES: O=C(Nc1c(Cl)cccc1Cl)Oc1cccc2cccnc12
- GI50 [1]: 7.28 µM
- TGI [1]: 75.2 µM
- GI50 [2]: 5.82 µM
- TGI [2]: 24.6 µM
- GI50 [3]: 8.98 µM
- TGI [3]: > 100 µM
- GI50 [4]: 4.23 µM
- TGI [4]: > 100 µM
- GI50 [5]: 4.62 µM
- TGI [5]: 39.4 µM
- GI50 [6]: 3.59 µM
- TGI [6]: 30.4 µM
- GI50 [7]: 6.19 µM
- TGI [7]: 81 µM
- GI50 [8]: 4.47 µM
- TGI [8]: 40.2 µM
- GI50 [9]: 3.04 µM
- TGI [9]: 10 µM
- GI50 [10]: 6.68 µM
- TGI [10]: 69 µM
- GI50 [11]: 2.73 µM
- TGI [11]: 27.9 µM
- GI50 [12]: 4.07 µM
- TGI [12]: 45.5 µM
- GI50 [13]: 6.26 µM
- TGI [13]: > 100 µM
- GI50 [14]: 0.992 µM
- TGI [14]: > 100 µM
- GI50 [15]: 3.96 µM
- TGI [15]: 28.4 µM
- GI50 [16]: 4.03 µM
- TGI [16]: 20.2 µM
- GI50 [17]: 3.29 µM
- TGI [17]: 14.5 µM
- GI50 [18]: 35.2 µM
- TGI [18]: > 100 µM
- GI50 [19]: 11.7 µM
- TGI [19]: > 100 µM
- GI50 [20]: 13.5 µM
- TGI [20]: 53.6 µM
- GI50 [21]: 16.7 µM
- TGI [21]: > 100 µM
- GI50 [22]: 3.08 µM
- TGI [22]: 50 µM
- GI50 [23]: 5.74 µM
- TGI [23]: > 100 µM
- GI50 [24]: 3.64 µM
- TGI [24]: > 100 µM
- GI50 [25]: 4.57 µM
- TGI [25]: 19 µM
- GI50 [26]: 8.85 µM
- TGI [26]: 90 µM
- GI50 [27]: 7.4 µM
- TGI [27]: > 100 µM
- GI50 [28]: 4.57 µM
- TGI [28]: 21.7 µM
- GI50 [29]: 4.24 µM
- TGI [29]: 25.3 µM
- GI50 [30]: 4.69 µM
- TGI [30]: 70.4 µM
- GI50 [31]: 2.74 µM
- TGI [31]: 9.72 µM
- GI50 [32]: 3.64 µM
- TGI [32]: 47.7 µM
- GI50 [33]: 2.99 µM
- TGI [33]: > 100 µM
- GI50 [34]: 7.99 µM
- TGI [34]: 48 µM
- GI50 [35]: 2.29 µM
- TGI [35]: 23.2 µM
- GI50 [36]: 4.61 µM
- TGI [36]: > 100 µM
- GI50 [37]: 3.46 µM
- TGI [37]: 20.2 µM
- GI50 [38]: 3.75 µM
- TGI [38]: 20.6 µM
- GI50 [39]: 4.52 µM
- TGI [39]: > 100 µM
- GI50 [40]: 3.71 µM
- TGI [40]: 20.3 µM
- GI50 [41]: 3.68 µM
- TGI [41]: > 100 µM
- GI50 [42]: 3.39 µM
- TGI [42]: 12.3 µM
- GI50 [43]: 5.63 µM
- TGI [43]: 21 µM
- GI50 [44]: 19.4 µM
- TGI [44]: > 100 µM
- GI50 [45]: 2.74 µM
- TGI [45]: 51.8 µM
- GI50 [46]: 3.87 µM
- TGI [46]: > 100 µM
- GI50 [47]: 3.69 µM
- TGI [47]: > 100 µM
- GI50 [48]: 7.52 µM
- TGI [48]: > 100 µM
- GI50 [49]: 5.46 µM
- TGI [49]: > 100 µM
- GI50 [50]: 10.9 µM
- TGI [50]: 66.1 µM
- GI50 [51]: 5.01 µM
- TGI [51]: > 100 µM
- GI50 [52]: 2.9 µM
- TGI [52]: 14 µM
- GI50 [53]: 3.19 µM
- TGI [53]: 24.4 µM
